Data on 29 molecules can be found in patent US11685734B2, “ATM kinase inhibitors and compositions and methods of use thereof” (CHDI Foundation, Inc., priority 2019, dated 2023).

Structures are written as SMILES. pIC50: −log10 of the molar value.

One assay addresses cellular ATM activity (Homo sapiens (Human), UniProt Q13315). Description: Inhibition of cellular ATM activity: etoposide-stimulated KAP1 phosphorylation in U20S cells. The assay is classed as cell-based. The following applies: 100 μM etoposide, 60 min, read-out: ATM CELL IC50.
Assay [1] has as its target Recombinant, full length human FLAG-tagged ATM (Homo sapiens (Human), UniProt Q13315). Description: ATM ELISA for p53 S15 phosphorylation. It counts as biochemical. The conditions noted are these: 0.75 nM ATM, 25 nM p53, 10 μM ATP, 30 min at 20° C.; read-out: ATM BIO IC50. A digest of the protocol:
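ELISA of p53 S15 phosphorylation by 0.75 nM full-length FLAG-ATM, with 25 nM myc-p53 and 10 μM ATP in HEPES pH 7.5 with Mg/Mn, 30 min at 20° C. Reactions were EDTA-stopped, captured on anti-myc and detected with anti-pS15/HRP-TMB at 450 nm.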

cellular ATM activity, sequence (Q13315 whole entry): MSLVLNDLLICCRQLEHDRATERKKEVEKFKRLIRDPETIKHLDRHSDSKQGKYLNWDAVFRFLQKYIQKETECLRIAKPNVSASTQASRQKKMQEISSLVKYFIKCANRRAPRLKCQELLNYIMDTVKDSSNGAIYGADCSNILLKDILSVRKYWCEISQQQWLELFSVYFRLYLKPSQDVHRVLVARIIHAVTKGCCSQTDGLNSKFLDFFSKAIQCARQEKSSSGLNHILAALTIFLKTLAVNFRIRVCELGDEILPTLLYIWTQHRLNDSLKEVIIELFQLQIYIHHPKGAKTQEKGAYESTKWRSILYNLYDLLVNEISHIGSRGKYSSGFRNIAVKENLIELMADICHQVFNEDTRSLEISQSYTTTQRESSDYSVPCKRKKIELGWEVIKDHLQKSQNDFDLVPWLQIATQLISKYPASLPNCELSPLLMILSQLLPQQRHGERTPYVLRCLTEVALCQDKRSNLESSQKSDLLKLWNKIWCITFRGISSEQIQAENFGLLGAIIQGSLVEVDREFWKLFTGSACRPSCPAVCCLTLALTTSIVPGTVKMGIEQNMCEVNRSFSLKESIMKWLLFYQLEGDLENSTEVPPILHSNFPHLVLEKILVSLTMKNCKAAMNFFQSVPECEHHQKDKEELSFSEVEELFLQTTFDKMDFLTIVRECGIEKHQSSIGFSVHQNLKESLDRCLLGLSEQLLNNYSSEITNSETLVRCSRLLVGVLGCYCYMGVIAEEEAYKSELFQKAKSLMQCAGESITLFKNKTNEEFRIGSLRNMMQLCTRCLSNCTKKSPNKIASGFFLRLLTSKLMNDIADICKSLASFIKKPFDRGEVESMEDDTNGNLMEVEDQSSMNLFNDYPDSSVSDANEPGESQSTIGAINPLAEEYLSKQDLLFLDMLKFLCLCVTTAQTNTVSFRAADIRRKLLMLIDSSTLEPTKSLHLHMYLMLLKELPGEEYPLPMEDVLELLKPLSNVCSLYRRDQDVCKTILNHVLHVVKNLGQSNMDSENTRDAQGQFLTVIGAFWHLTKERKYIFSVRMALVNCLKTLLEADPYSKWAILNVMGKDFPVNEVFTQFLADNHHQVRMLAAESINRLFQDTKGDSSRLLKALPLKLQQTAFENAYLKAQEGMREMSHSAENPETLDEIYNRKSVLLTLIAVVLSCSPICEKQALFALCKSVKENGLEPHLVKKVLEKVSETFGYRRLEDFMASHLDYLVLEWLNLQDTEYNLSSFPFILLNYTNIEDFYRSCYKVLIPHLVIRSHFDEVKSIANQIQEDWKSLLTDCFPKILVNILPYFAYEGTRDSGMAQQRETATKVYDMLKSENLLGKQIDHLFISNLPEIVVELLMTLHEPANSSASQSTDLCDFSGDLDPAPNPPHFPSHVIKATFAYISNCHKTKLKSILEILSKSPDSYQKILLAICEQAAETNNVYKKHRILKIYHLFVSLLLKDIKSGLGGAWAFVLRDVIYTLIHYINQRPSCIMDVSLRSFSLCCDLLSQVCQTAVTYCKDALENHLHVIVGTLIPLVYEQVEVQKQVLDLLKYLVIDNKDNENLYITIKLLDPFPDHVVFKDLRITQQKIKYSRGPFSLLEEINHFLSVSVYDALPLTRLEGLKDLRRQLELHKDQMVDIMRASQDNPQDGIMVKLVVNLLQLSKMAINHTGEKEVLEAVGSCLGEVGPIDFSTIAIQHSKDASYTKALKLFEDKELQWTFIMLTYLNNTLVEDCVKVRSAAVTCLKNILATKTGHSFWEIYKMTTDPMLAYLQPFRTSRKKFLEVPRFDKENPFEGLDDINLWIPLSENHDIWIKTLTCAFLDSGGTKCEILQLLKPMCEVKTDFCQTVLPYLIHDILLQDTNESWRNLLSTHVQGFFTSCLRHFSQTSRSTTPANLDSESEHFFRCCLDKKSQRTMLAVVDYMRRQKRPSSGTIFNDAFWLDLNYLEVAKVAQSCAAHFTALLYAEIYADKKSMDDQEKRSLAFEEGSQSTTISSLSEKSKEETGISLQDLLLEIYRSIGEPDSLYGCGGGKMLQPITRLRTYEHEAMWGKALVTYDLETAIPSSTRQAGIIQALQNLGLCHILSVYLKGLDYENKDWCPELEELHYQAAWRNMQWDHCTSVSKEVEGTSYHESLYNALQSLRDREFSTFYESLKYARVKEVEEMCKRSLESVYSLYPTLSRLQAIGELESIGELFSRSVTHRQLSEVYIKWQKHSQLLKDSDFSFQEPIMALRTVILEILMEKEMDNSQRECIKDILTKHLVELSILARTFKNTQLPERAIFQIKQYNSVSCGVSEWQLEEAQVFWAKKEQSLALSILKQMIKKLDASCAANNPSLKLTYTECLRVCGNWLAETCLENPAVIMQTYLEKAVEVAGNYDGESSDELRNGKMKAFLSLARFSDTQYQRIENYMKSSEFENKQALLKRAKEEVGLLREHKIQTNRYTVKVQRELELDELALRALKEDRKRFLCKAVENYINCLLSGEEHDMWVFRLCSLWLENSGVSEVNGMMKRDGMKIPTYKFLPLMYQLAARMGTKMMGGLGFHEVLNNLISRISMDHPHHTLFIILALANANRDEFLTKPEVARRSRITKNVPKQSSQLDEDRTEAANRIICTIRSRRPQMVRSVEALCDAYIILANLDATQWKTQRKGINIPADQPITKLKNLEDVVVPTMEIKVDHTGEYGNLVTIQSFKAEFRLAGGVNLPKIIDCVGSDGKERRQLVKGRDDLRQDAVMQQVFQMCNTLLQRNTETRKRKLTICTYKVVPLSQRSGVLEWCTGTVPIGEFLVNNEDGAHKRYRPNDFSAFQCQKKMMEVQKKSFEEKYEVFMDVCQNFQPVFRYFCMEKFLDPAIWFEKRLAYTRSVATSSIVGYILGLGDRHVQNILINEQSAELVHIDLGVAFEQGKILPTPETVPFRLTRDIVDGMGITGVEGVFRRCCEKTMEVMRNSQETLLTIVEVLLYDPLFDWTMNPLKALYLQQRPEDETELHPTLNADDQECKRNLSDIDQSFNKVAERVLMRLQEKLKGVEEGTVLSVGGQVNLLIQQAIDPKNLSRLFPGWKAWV
Recombinant, full length human FLAG-tagged ATM, sequence (Q13315 whole entry): as above

Broadly, the pIC50 is the negative decadic logarithm of the IC50, by convention in mol/L. As for `O=c1cc(N2CCOCC2)nc(N2CC[C@@H](F)[C@@H]2Cc2ccccc2)[nH]1` [Example 259, 2-((2S,3R)-2-benzyl-3-fluoropyrrolidin-1-yl)-6-morpholinopyrimidin-4(3H)-one], the pIC50 at cellular ATM activity was 6.71; in assay [1], 8.77.
Turning to `C[C@H]1CCN(c2nc(N3CCOCC3)cc(=O)[nH]2)[C@H]1Cc1ccccc1` [Example 261, 2-((2S,3S)-2-benzyl-3-methylpyrrolidin-1-yl)-6-morpholinopyrimidin-4(3H)-one], the negative logarithm of the IC50 (pIC50) on cellular ATM activity was 5.52; in assay [1] it was 7.21.
The like results for `O=c1cc(N2CCOCC2)nc(N2CC3(CC3)C[C@@H]2Cc2ccccc2)[nH]1` [Example 262, (S)-2-(6-benzyl-5-azaspiro[2.4]heptan-5-yl)-6-morpholinopyrimidin-4(3H)-one] were, in that order, 6.55 and 8.01.
The like results for `COc1ccccc1C[C@H]1CC2(CC2)CN1c1nc(N2CCOCC2)cc(=O)[nH]1` [Example 264, (R)-2-(6-(2-methoxybenzyl)-5-azaspiro[2.4]heptan-5-yl)-6-morpholinopyrimidin-4(3H)-one] were, in that order, 6.46 and 8.28.
The like results for `C[C@@H]1CN(c2cc(=O)[nH]c(N3CCCCC[C@@H]3Cc3ccccc3)n2)CCO1` [Example 270, 2-((R)-2-benzylazepan-1-yl)-6-((R)-2-methylmorpholino)pyrimidin-4(3H)-one] were, in that order, 6.09 and 8.13.
Regarding `C[C@@H]1CN(c2cc(=O)[nH]c(N3CCC[C@@H]3Cc3ccccc3)n2)CCO1` [Example 271, 2-((R)-2-benzylpyrrolidin-1-yl)-6-((R)-2-methylmorpholino)pyrimidin-4(3H)-one], the pIC50 at cellular ATM activity was 5.67; in assay [1], 7.62.
In the case of `Cc1ccc(C[C@H]2CCCN2c2nc(N3CCO[C@H](C)C3)cc(=O)[nH]2)cc1` [Example 274, 4-[(2R)-2-methylmorpholin-4-yl]-2-[(2R)-2-(p-tolylmethyl)pyrrolidin-1-yl]-1H-pyrimidin-6-one], the pIC50 was 6.39 on cellular ATM activity and 7.49 in assay [1].
For `Cc1cc(C[C@H]2CCCN2c2nc(N3CCO[C@H](C)C3)cc(=O)[nH]2)cc(C)n1` [Example 277, 2-[(2R)-2-[(2,6-dimethyl-4-pyridyl)methyl]pyrrolidin-1-yl]-4-[(2R)-2-methylmorpholin-4-yl]-1H-pyrimidin-6-one], in that order: 6.38 and 7.24.
For `C[C@@H]1CN(c2cc(=O)[nH]c(N3CCC[C@@H]3Cc3ccc(Cl)c(Cl)c3)n2)CCO1` [Example 278, 2-[(2R)-2-[(3,4-dichlorophenyl)methyl]pyrrolidin-1-yl]-4-[(2R)-2-methylmorpholin-4-yl]-1H-pyrimidin-6-one], in that order: 6.01 and 7.05.
The like results for `C[C@@H]1CN(c2cc(=O)[nH]c(N3CCC[C@@H]3Cc3ccc(F)cc3)n2)CCO1` [Example 281, 2-[(2R)-2-[(4-fluorophenyl)methyl]pyrrolidin-1-yl]-4-[(2R)-2-methylmorpholin-4-yl]-1H-pyrimidin-6-one] were, in that order, 6.20 and 7.46.
`C[C@@H]1CN(c2cc(=O)[nH]c(N3CCCCC[C@@H]3Cc3cccs3)n2)CCO1` [Example 286, 6-((R)-2-methylmorpholino)-2-((R)-2-(thiophen-2-ylmethyl)azepan-1-yl)pyrimidin-4(3H)-one]: the results for the negative logarithm of the IC50 (pIC50) (at cellular ATM activity; in assay [1]) were 5.99 and 7.61, respectively.
The like results for `C[C@@H]1CN(c2cc(=O)[nH]c(N3C[C@H]4C[C@H]4[C@@H]3Cc3ccccc3)n2)CCO1` [Example 291, 2-((1R,2S,5S)-2-benzyl-3-azabicyclo[3.1.0]hexan-3-yl)-6-((R)-2-methylmorpholino)pyrimidin-4(3H)-one] were, in that order, 6.25 and 7.95.
On to `C[C@@H]1CN(c2cc(=O)[nH]c(N3C[C@@H]4C[C@@H]4[C@@H]3Cc3ccccc3)n2)CCO1` [Example 292, 2-((1S,2S,5R)-2-benzyl-3-azabicyclo[3.1.0]hexan-3-yl)-6-((R)-2-methylmorpholino)pyrimidin-4(3H)-one], for which the pIC50 is 5.88 on cellular ATM activity and 8.26 in assay [1].
Take `C[C@@H]1CN(c2cc(=O)[nH]c(N3CC[C@@H](C)[C@@H]3Cc3ccccc3)n2)CCO1` [Example 294, 2-((2S,3R)-2-benzyl-3-methylpyrrolidin-1-yl)-6-((R)-2-methylmorpholino)pyrimidin-4(3H)-one]: the pIC50 at cellular ATM activity is 6.37; in assay [1], 7.68.
On to `COc1ccccc1C[C@H]1[C@H](C)CCN1c1nc(N2CCO[C@H](C)C2)cc(=O)[nH]1` [Example 296, 2-((2S,3R)-2-(2-methoxybenzyl)-3-methylpyrrolidin-1-yl)-6-((R)-2-methylmorpholino)pyrimidin-4(3H)-one], for which the pIC50 at cellular ATM activity is 5.73; in assay [1] it was 7.39.
For `C[C@@H]1CN(c2cc(=O)[nH]c(N3CCCCC[C@@H]3Cc3cccc(F)c3F)n2)CCO1` [Example 300, 2-((R)-2-(2,3-difluorobenzyl)azepan-1-yl)-6-((R)-2-methylmorpholino)pyrimidin-4(3H)-one], the pIC50 at cellular ATM activity was 6.23; in assay [1] it was 7.03.
The like results for `C[C@@H]1CN(c2cc(=O)[nH]c(N3CCCCC[C@@H]3Cc3ccc(F)cc3)n2)CCO1` [Example 304, 2-((R)-2-(4-fluorobenzyl)azepan-1-yl)-6-((R)-2-methylmorpholino)pyrimidin-4(3H)-one] were, in that order, 6.02 and 7.72.
For `C[C@@H]1CN(c2cc(=O)[nH]c(N3CCCCC[C@@H]3Cc3cccc4c3OCC4)n2)CCO1` [Example 305, 2-((R)-2-((2,3-dihydrobenzofuran-7-yl)methyl)azepan-1-yl)-6-((R)-2-methylmorpholino)pyrimidin-4(3H)-one], in that order: 6.24 and 7.41.
For `COCCOc1cccc(C[C@H]2CCCCCN2c2nc(N3CCO[C@H](C)C3)cc(=O)[nH]2)c1` [Example 308, 2-((R)-2-(3-(2-methoxyethoxy)benzyl)azepan-1-yl)-6-((R)-2-methylmorpholino)pyrimidin-4(3H)-one], in that order: 6.25 and 7.84.
For the molecule `COCCOc1ccc(C[C@H]2CCCCCN2c2nc(N3CCO[C@H](C)C3)cc(=O)[nH]2)cc1` [Example 309, 2-((R)-2-(4-(2-methoxyethoxy)benzyl)azepan-1-yl)-6-((R)-2-methylmorpholino)pyrimidin-4(3H)-one], the pIC50 on cellular ATM activity was 6.59; in assay [1] it was 8.21.
For `C[C@H]1CCCN(c2nc(N3CCO[C@H](C)C3)cc(=O)[nH]2)[C@@H](Cc2ccccc2)C1` [Example 312, 2-((2R,4S)-2-benzyl-4-methylazepan-1-yl)-6-((R)-2-methylmorpholino)pyrimidin-4(3H)-one], in that order: 5.76 and 7.35.
Turning to `C[C@H]1CCCN(c2nc(N3CCO[C@H](C)C3)cc(=O)[nH]2)[C@@H](Cc2ccc(F)cc2)C1` [Example 313, 2-((2R,4S)-2-(4-fluorobenzyl)-4-methylazepan-1-yl)-6-((R)-2-methylmorpholino)pyrimidin-4(3H)-one], the pIC50 on cellular ATM activity was 5.78; in assay [1], 7.37.
For `C[C@@H]1CN(c2cc(=O)[nH]c(N3CCCCC[C@@H]3Cc3ccsc3)n2)CCO1` [Example 315, 6-((R)-2-methylmorpholino)-2-((R)-2-(thiophen-3-ylmethyl)azepan-1-yl)pyrimidin-4(3H)-one], in that order: 6.09 and 7.79.
As for `C[C@@H]1CN(c2cc(=O)[nH]c(N3CCCCC[C@@H]3Cc3ccccc3F)n2)CCO1` [Example 317, 2-((R)-2-(2-fluorobenzyl)azepan-1-yl)-6-((R)-2-methylmorpholino)pyrimidin-4(3H)-one], the results for the pIC50 (at cellular ATM activity; in assay [1]) were 6.07 and 7.34, respectively.
For `C[C@@H]1CN(c2cc(=O)[nH]c(N3CC[C@@H](F)[C@@H]3Cc3ccccc3)n2)CCO1` [Example 319, 2-((2S,3R)-2-benzyl-3-fluoropyrrolidin-1-yl)-6-((R)-2-methylmorpholino)pyrimidin-4(3H)-one], in that order: 6.27 and 8.28.
For `C[C@@H]1CN(c2cc(=O)[nH]c(N3CCC(F)(F)[C@@H]3Cc3ccccc3)n2)CCO1` [Example 322, 2-((S)-2-benzyl-3,3-difluoropyrrolidin-1-yl)-6-((R)-2-methylmorpholino)pyrimidin-4(3H)-one], in that order: 5.55 and 7.48.
The like results for `COc1ccccc1C[C@H]1[C@@H](F)CCN1c1nc(N2CCO[C@H](C)C2)cc(=O)[nH]1` [Example 324] were, in that order, 5.78 and 8.27.
With `C[C@@H]1CN(c2cc(=O)[nH]c(N3CCC[C@@H]3Cc3ccccc3)n2)C[C@@H](C)O1` [Example 347, 2-((R)-2-benzylpyrrolidin-1-yl)-6-((2R,6R)-2,6-dimethylmorpholino)pyrimidin-4(3H)-one], the figures for the pIC50 (at cellular ATM activity; in assay [1]) were 6.28 and 7.63, respectively.
The like results for `C[C@@H]1CN(c2cc(=O)[nH]c(N3CCCCC[C@@H]3Cc3ccccc3)n2)C[C@@H](C)O1` [Example 349, 2-((R)-2-benzylazepan-1-yl)-6-((2R,6R)-2,6-dimethylmorpholino)pyrimidin-4(3H)-one] were, in that order, 6.46 and 8.12.
